Data set [1] in a line: TEAC model (Trolox equivalent antioxidant capacity). The settings on record: concentration of Trolox equivalent to 1 mM test compound; mean ± S.D., n = 3-5. How it is done:
A solution of 2,2′-azino-bis(3-ethylbenzthiazoline-6-sulfonic acid) (1.23 mg/mL) and azobisamidinepropane (3.96 mg/mL) in 50 mM phosphate buffer (pH=7.4) was heated at 70° C. for 20 min. The amount of ABTS radicals was measured by determination of the absorbance at 734 nm.
Stock solutions of the flavonoids were freshly prepared in nitrogen-purged DMSO and nanopure water (1:1) just before use. A calibration curve of Trolox ((+/−)-6-hydroxy-2,5,7,8-tetramethyl-chroman-2-carboxylic acid) was made in a concentration range from 0 to 20 μM. A mixture of 50 μL test compound and 950 μL ABTS^−+ solution was incubated at 37° C. for 5 min. Subsequently the absorbance at 734 nm was determined on a UV/VIS Spectrophotometer.
The antioxidant-induced decrease in absorbance is directly related to the antioxidant capacity of the compound (solution) being tested.
The Trolox equivalent antioxidant capacity (TEAC) is defined as the concentration (mM) of Trolox having an antioxidant capacity equivalent to 1 mM of the test compound.

The subject of data set [2] is iron/ascorbate induced lipid peroxidation. Briefly: Lipid peroxidation (LPO) model, heat-treated hepatic microsomes, TBA reactive substances. The class given is biochemical. To be noted: rat hepatic microsomes, reaction started with 10 uM FeSO4; mean ± s.e.m., n = 3-5. How it is done:
Experiment 1: Lipid Peroxidation Model
Preparation of hepatic microsomes.
Male Wistar rats (200-220 g) obtained from Harlan Nederland B.V. (Horst, The Netherlands) were sacrificed by decapitation. Livers were removed and homogenized in ice-cold phosphate buffer (50 mM+0.1 mM EDTA, pH=7.4, 1:2 w/v). The homogenate was centrifuged at 10 000× g (20 min at 4° C.). Subsequently, the supernatant was centrifuged at 100 000× g for 60 min (4° C.). The pellet was resuspended in phosphate buffer and centrifuged again at 100 000× g (60 min, 4° C.). Finally the microsomal pellet was resuspended in phosphate buffer (2 g liver/ml) and 1 mL aliquots were stored at −80° C.
Microsomes were thawed and resuspended in ice-cold Tris-HCl buffer (50 mM, pH=7.4 at 37° C.) and washed by centrifugation. The pellet was resuspended in 2 mL 50 mM Tris-HCl buffer and heated to 100° C. for at least 2 min to remove all enzymatic factors just before resuspending and diluting it in ice-cold Tris buffer to 1.5 mg/mL.
Stock solutions of the flavonoids were freshly prepared in nitrogen-purged DMSO and nanopure water (1:1) just before use. The reaction was started by adding 10 uM freshly prepared FeSO4 in nitrogen-purged nanopure water. LPO was assayed by measuring thiobarbituric acid (TBA) reactive substances. At t=0, 5, 10, 15, 30, 45 and 60 min an 0.3 mL aliquot of the incubation was mixed with 2 mL of an ice-cold TBA-trichloroacetic acid-HCl-butylhydroxytoluene (BHT) solution to stop the reaction. After heating and centrifugation the absorbance at 535 vs 600 nm was determined. The TBA-trichloroacetic acid-HCl-butylhydroxytoluene solution was prepared by dissolving 41.6 mg TBA/10 ml trichloroacetic acid (16.8% w/v in 0.125 N HCl). To 10 ml TBA-trichloroacetic acid-HCl 1 ml BHT (1.5 mg/ml ethanol) was added.
The IC50 was determined by measuring the % LPO inhibition at several concentrations and interpolating the 50% inhibition point.

Data set [3] concerns doxorubicin-induced cardiotoxicity. The data set can be described thus: Protection against doxorubicin-induced cardiotoxicity in vivo (ST-interval in ECG, telemetry). The settings on record: mice.
The test system of data set [4] is alloxan-induced diabetic rats. The data set can be described thus: Antidiabetic action in alloxan-induced diabetic rats. It counts as in vivo. The settings on record: 68 mg/kg i.p. for two weeks. How it is done:
In order to study the antidiabetic action of compound 9i (see FIG. 1 and the section “syntheses” above), the compound was studied in alloxan-induced diabetic rats. […] These diabetic rats were subsequently treated with compound 9i for two weeks (at 68 mg/kg, i.p.).

The test system of data set [5] is guinea pigs exposed to ozone. The data set can be described thus: Ozone exposure model for COPD, pulmonary neutrophil influx. The class given is in vivo. The settings on record: 1 ppm ozone 12 h then 12 h air, 68 mg/kg i.p. An excerpt: Chronic Obstructive Pulmonary Disease is associated with oxidative stress. There are strong indications that antioxidant therapy may be beneficial in COPD ([…] et al., Am. J. Resp. Crit. Care Med. 156, 341-358 (1997)). Not only the number of exacerbations decreases, but also the progressive decrease in lung function becomes less severe under treatment with an antioxidant like N-acetylcysteine. An animal model for COPD is ozone exposure. In contrast to asthma, COPD is characterized by a neutrophil influx. […] We studied the protective effect of compound 9i in this ozone exposure model. […] To this end compound 9[…].) was given (24 h, 12 h before ozone exposure and daily during the exposure to ozone/air) to guinea pigs that were exposed to 1 ppm ozone for 12 h which was followed by 12 h of air.

Data set [6] concerns isolated mouse left atrium. Briefly: Isolated mouse left atrium model: protection against doxorubicin-induced negative inotropy. To be noted: 250 μM flavonoid with 35 μM doxorubicin, electrically paced mouse left atrium. How it is done: Experiment 3: Isolated Mouse Left Atrium Model
In order to determine the cardioprotective properties of the compounds in vitro, the protection against doxorubicin-induced negative inotropy was studied, using the isolated mouse left atrium model.
The example compounds were tested for their protective effect on the negative inotropic action of doxorubicin on the isolated mouse left atrium. The testing model has been described earlier (de Jong et al.Ress Comm Chem Pathol Pharmacol 68, 275-289 (1990). In short, left atria were isolated from male Balb/c mice (18-22 g) and stimulated with square wave pulses of 3 ms duration at a frequency of 4 Hz. Incubation with […] doxorubicin causes a decrease in inotropy of 50% (after 1 h). Atria were incubated with 35 μM doxorubicin and 250 μM flavonoid. Inotropy was measured and expressed as % basal contractile force relative to t=0.

Data set [7] has as its system A2780 cells. Briefly: Interference with antitumor activity of doxorubicin, MTT assay. The class given is cell-based. The protocol:
(§1) Experiment 5: Interference with the Antitumor Activity of Doxorubicin Because of the possible use of these compounds as adjuvants in the chemotherapy, it was checked whether the compounds influenced the negative effect of doxorubicin on cell growth. […] This observation further underlined the use of these compounds as adjuvant therapy in the protection of the side effects of cytostatics. On day 0 cultured OVCAR-3, MCF-7 and A2780 cells were plated at a density of 5000 cells/well for OCAR-3 and MCF-7 and 3000 cells/well for A2780 cells. […] After incubation of 96 h at 37° C. (day 5), growth inhibitory effects were evaluated using the standard MTT assay.
For orientation: Tetrazolium assays rely on reduction of a dye to a coloured formazan, in cell work by metabolically active cells.

In data set [8] the test system is OVCAR-3 cells. The data set is described as above. It counts as cell-based. How it is done:
as §1

In data set [9] the test system is MCF-7 cells. The data set is described as above. The class given is cell-based. The protocol: as §1

SMILES strings stand for the structures.

`COc1ccc2c(=O)cc(-c3ccc(O)c(O)c3)oc2c1` [Compound 8b, 3′,4′-dihydroxy-7-methoxyflavone] yielded a melting point greater than 240 °C. The TEAC in data set [1] is on record as 3.3 ± 0.2 mM. The molecule also had an IC50 in data set [2] of 2500 ± 800 nM.
With `O=c1c(O[C@@H]2O[C@H](CO)[C@@H](O)[C@H](O)[C@H]2O)c(-c2ccc(O)c(O)c2)oc2ccccc12` [Compound 9i, 3′,4′-dihydroxy-3-glucoseflavone], the “potency as protector against doxorubicin-induced cardiotoxicity relative to monoHER” value in data set [3] (68 mg/kg i.p.) is on record as “at least 5 times”. For the same molecule, the “protection against doxorubicin-induced cardiotoxicity in vivo (in words)” value in data set [3] (9i 68 mg/kg i.p., doxorubicin 4 mg/kg i.v. weekly, 6 weeks) is given as “significantly potent activity”. In [1], the TEAC amounted to 4.9 ± 0.3 mM. In addition, the “glucose plasma level compared to controls” value in data set [4] was “decrease in glucose plasma level”. In [5], the pulmonary neutrophil influx entry was “could be prevented”. For the same molecule, in [6], the “Atrium protection (250 μM)” value worked out at 46%. Further, the “9i 100 μM growth %” value was 97.7% in data set [7] (A2780, 100 μM, 96 h); 86.8% in [8] (OVCAR-3, 100 μM, 96 h); 83.8% in data set [9] (MCF-7, 100 μM, 96 h). This molecule also showed an IC50 in data set [2] of 2800 ± 900 nM.
Turning to `COc1cccc2c1C(=O)c1c(O)c3c(c(O)c1C2=O)C[C@@](O)(C(=O)CO)C[C@@H]3O[C@H]1C[C@H](N)[C@H](O)[C@H](C)O1` [Dox, doxorubicin, reference compound], the 50% inhibitory concentration (IC50) amounted to 3.8 nM in data set [7] (Homo sapiens, A2780, 96 h, read-out: Dox IC50); 6.5 nM in [8] (Homo sapiens, OVCAR-3, 96 h, read-out: Dox IC50); 4 nM in data set [9] (Homo sapiens, MCF7, MCF-7, 96 h, read-out: Dox IC50).

A word on the melting point: it is the temperature, or range, at which the solid turns liquid. By IC50 is commonly meant the concentration at which inhibition is half-maximal.

These data come from patent publication US20020147353A1, “Novel flavonoids” (Vereniging christelijk wetenschappelijk anderwijs, priority 1999, published 2002).
